Several values for one entry are separate records, joined by “and”; a condition that tells them apart may be missing. Equal entries are not always repeated.
Legend:
CETP = molecular target: T1, CETP (Homo sapiens, UniProt P11597); experiment: CETP in vitro assay ([3H]CE-HDL transfer, Amersham kit TRKQ7005; modified protocol in human plasma); type: biochemical; conditions: multiple values = multiple measurements; for inhibition at 1 µM / % Inhibition @ 1 μM: 1 μM compound
T1 construct: from tissue; host or cells: human plasma from normal volunteers
T1 sequence (P11597 18-493): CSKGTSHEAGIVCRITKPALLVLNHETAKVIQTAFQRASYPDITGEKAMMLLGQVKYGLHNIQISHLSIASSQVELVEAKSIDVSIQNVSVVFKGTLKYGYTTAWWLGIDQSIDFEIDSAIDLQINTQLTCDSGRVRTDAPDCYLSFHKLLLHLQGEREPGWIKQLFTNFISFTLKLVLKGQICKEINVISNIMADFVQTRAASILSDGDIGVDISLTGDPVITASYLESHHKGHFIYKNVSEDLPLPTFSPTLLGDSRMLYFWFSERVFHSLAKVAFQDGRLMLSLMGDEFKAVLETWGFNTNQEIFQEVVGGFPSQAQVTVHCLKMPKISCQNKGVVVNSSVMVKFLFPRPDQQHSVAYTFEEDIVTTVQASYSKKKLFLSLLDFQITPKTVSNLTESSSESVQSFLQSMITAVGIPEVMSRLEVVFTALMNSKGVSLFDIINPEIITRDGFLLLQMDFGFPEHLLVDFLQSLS
In short: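 Normal-volunteer human plasma was incubated ≥4 hr at 37 °C with approx. 25 μg/ml [3H]CE-HDL and compound in DMSO, with a 4 °C blank for non-specific transfer. HDL was separated by Dextralip/MgCl2 precipitation and centrifugation, then supernatant radioactivity counted. IC50 came from % control versus concentration.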

cholesterol-fed hamsters = experiment: CETP in vivo assay: lipid parameters in cholesterol-fed hamsters; set-up: species or system hamster; conditions: plasma, mean ± SEM
Method: To determine the in vivo efficacy of a test compound, hamsters are first fed a moderately high cholesterol diet (Research Diets, D5012801) for two weeks before commencing treatment. The animals are orally gavaged with the vehicle (10% solutol, 5% ethanol, 85% D5W) and test compound for 5 days with the last dose being administered 2 hrs before sacrifice. Plasma is obtained and lipid parameters (HDL-C, LDL-C, Total Cholesterol, Triglycerides) are measured.

rabbits [1] = conditions: rabbits with severe hypercholesterolemia; cited from earlier work
[2] = clinical studies; cited from earlier work
rabbits [3] = conditions: 30 mg/kg; cited from earlier work

Q: What does the source list for `O[C@@H](CN1c2cccc(-c3cccc(OC(F)(F)F)c3)c2OC[C@@H]1c1cccc(OC(F)(F)C(F)F)c1)C(F)(F)F` [Compound 3, 4H-1,4-Benzoxazine-4-ethanol, 2,3-dihydro-3-[3-(1,1,2,2-tetrafluoroethoxy)phenyl]-8-[3-(trifluoromethoxy)phenyl]-α-(trifluoromethyl)-, (3S,αS)—]?
A: inhibition at 1 µM (CETP): 91%; IC50 (CETP): 26 nM; HDL (cholesterol-fed hamsters; 3 mg/kg oral gavage 5 days): 136 ± 6 mg/dL; HDL-C/LDL Ratio (cholesterol-fed hamsters; 3 mg/kg oral gavage 5 days): 3.7 ± 0.2; LDL (cholesterol-fed hamsters; 3 mg/kg oral gavage 5 days): 36 ± 3 mg/dL; Total Cholesterol (cholesterol-fed hamsters; 3 mg/kg oral gavage 5 days): 207 ± 7 mg/dL; Triglycerides (cholesterol-fed hamsters; 3 mg/kg oral gavage 5 days): 278 ± 21 mg/dL; HDL (cholesterol-fed hamsters; 10 mg/kg oral gavage 5 days): 158 ± 10 mg/dL; HDL-C/LDL Ratio (cholesterol-fed hamsters; 10 mg/kg oral gavage 5 days): 5.2 ± 0.4; LDL (cholesterol-fed hamsters; 10 mg/kg oral gavage 5 days): 30 ± 2 mg/dL; Total Cholesterol (cholesterol-fed hamsters; 10 mg/kg oral gavage 5 days): 217 ± 12 mg/dL; Triglycerides (cholesterol-fed hamsters; 10 mg/kg oral gavage 5 days): 282 ± 16 mg/dL; HDL (cholesterol-fed hamsters; 30 mg/kg oral gavage 5 days): 167 ± 5 mg/dL; HDL-C/LDL Ratio (cholesterol-fed hamsters; 30 mg/kg oral gavage 5 days): 6.2 ± 0.3; LDL (cholesterol-fed hamsters; 30 mg/kg oral gavage 5 days): 27 ± 2 mg/dL; Total Cholesterol (cholesterol-fed hamsters; 30 mg/kg oral gavage 5 days): 226 ± 5 mg/dL; Triglycerides (cholesterol-fed hamsters; 30 mg/kg oral gavage 5 days): 300 ± 36 mg/dL

Q: With `CCC(CC)CC1(C(=O)Nc2ccccc2SC(=O)C(C)C)CCCCC1` [JTT-705] as the compound, how does the plasma triglycerides (rabbits [1]) read?
A: significant elevations of plasma triglycerides

Q: And the “prevention of lesion development” value (rabbits [1])?
A: not efficacious in preventing lesion development

Q: And the HDL-C [2]?
A: raise HDL-C

Q: What about the LDL-C [2] of the same compound?
A: modestly lower LDL-C

Q: What about the triglyceride levels [2] of the same compound?
A: not alter triglyceride levels

Q: What about the CETP activity (rabbits [3]) of the same compound?
A: inhibited CETP activity

Q: What about the “change of HDL-C” value (rabbits [3]) of the same compound?
A: +90%

Q: What about the “change of lesion size” value (rabbits [3]) of the same compound?
A: −70%

Q: What about the “change of non-HDL-C cholesterol” value (rabbits [3]) of the same compound?
A: −50%

Q: Which “% Inhibition @ 1 μM” value (CETP) does the source give for `OC(CN1c2cccc(-c3cccc(OC(F)(F)F)c3)c2OCC1c1cccc(Cl)c1)C(F)(F)F` (stereo not drawn) [Compound 101, 3-[3-(3-Chloro-phenyl)-8-(3-trifluoromethoxy-phenyl)-2,3-dihydro-benzo[1,4]oxazin-4-yl]-1,1,1-trifluoro-propan-2-ol] here?
A: 61% and 63%

Q: What about the IC50 (CETP) of the same compound?
A: 214 nM

Q: For `CC(C)C(O)CN1c2cccc(-c3cccc(OC(F)(F)F)c3)c2OCC1c1cccc(OC(F)(F)C(F)F)c1` (stereo not drawn) [Compound 84, 3-Methyl-1-[3-[3-(1,1,2,2-tetrafluoro-ethoxy)-phenyl]-8-(3-trifluoromethoxy-phenyl)-2,3-dihydro-benzo[1,4]oxazin-4-yl]-butan-2-ol], which inhibition at 1 µM (CETP) is on record?
A: 84%

Q: What about the “% Inhibition @ 1 μM” value (CETP) of the same compound?
A: 87%

Q: What about the IC50 (CETP) of the same compound?
A: 100 nM and 158 nM

Q: For `OC(CN1c2cccc(-c3cccc(OC(F)(F)F)c3)c2OCC1c1ccccc1OC(F)(F)C(F)F)C(F)(F)F` (stereo not drawn) [Compound 92, 1,1,1-Trifluoro-3-[3-[2-(1,1,2,2-tetrafluoro-ethoxy)-phenyl]-8-(3-trifluoromethoxy-phenyl)-2,3-dihydro-benzo[1,4]oxazin-4-yl]-propan-2-ol], which “% Inhibition @ 1 μM” value (CETP) is on record?
A: 1%

Q: Which inhibition at 1 µM (CETP) does the source give for `NCCN1c2cccc(-c3cccc(OC(F)(F)F)c3)c2OCC1c1cccc(OC(F)(F)C(F)F)c1` (stereo not drawn) [Compound 39, 2-[3-[3-(1,1,2,2-Tetrafluoro-ethoxy)-phenyl]-8-(3-trifluoromethoxy-phenyl)-2,3-dihydro-benzo[1,4]oxazin-4-yl]-ethylamine] here?
A: 2%

Q: For `O[C@@H](CN1c2cccc(-c3cccc(OC(F)(F)F)c3)c2OC[C@@H]1c1cccc(OC(F)(F)F)c1)C(F)(F)F` [Compound 9, 4H-1,4-Benzoxazine-4-ethanol, 2,3-dihydro-3,8-bis[3-(trifluoromethoxy)phenyl]-α-(trifluoromethyl)-, (3S,αS)—], which inhibition at 1 µM (CETP) is on record?
A: 68%

Q: What about the “% Inhibition @ 1 μM” value (CETP) of the same compound?
A: 72% and 67%

Q: And the IC50 (CETP)?
A: 71 nM and 195 nM

Q: Which inhibition at 1 µM (CETP) does the source give for `OC[C@@H](O)CN1c2cccc(-c3cccc(OC(F)(F)F)c3)c2OC[C@H]1c1cccc(OC(F)(F)C(F)F)c1` [Compound 48, 1,2-Propanediol, 3-[(3R)-2,3-dihydro-3-[3-(1,1,2,2-tetrafluoroethoxy)phenyl]-8-[3-(trifluoromethoxy)phenyl]-4H-1,4-benzoxazin-4-yl]-, (2S)—] here?
A: 13%

Q: With `CS(=O)(=O)NCCN1c2cccc(-c3cccc(OC(F)(F)F)c3)c2OCC1c1cccc(OC(F)(F)C(F)F)c1` (stereo not drawn) [Compound 43, N-{2-[3-[3-(1,1,2,2-Tetrafluoro-ethoxy)-phenyl]-8-(3-trifluoromethoxy-phenyl)-2,3-dihydro-benzo[1,4]oxazin-4-yl]-ethyl}-methanesulfonamide] as the compound, how does the inhibition at 1 µM (CETP) read?
A: 0%

Q: With `OC(CN1c2cccc(-c3cccc(OC(F)(F)F)c3)c2OCC1c1ccc(OC(F)(F)C(F)F)cc1)C(F)(F)F` (stereo not drawn) [Compound 94, 1,1,1-Trifluoro-3-[3-[4-(1,1,2,2-tetrafluoro-ethoxy)-phenyl]-8-(3-trifluoromethoxy-phenyl)-2,3-dihydro-benzo[1,4]oxazin-4-yl]propan-2-ol] as the compound, how does the “% Inhibition @ 1 μM” value (CETP) read?
A: 11%

— patent publication US8012963B2, “3,4-dihydro-2H-benzo[1,4]oxazine and thiazine derivatives as CETP inhibitors” (Janssen Pharmaceutica N.V., priority 2006, dated 2011)
